Data on 22 compounds can be found in patent US12173026B2, “PRMT5 inhibitors” (Merck Sharp & Dohme LLC, priority 2018, dated 2024).

In the assay the test system is symmetric dimethylation of arginine (SDMA) of PRMT5 substrates in MCF-7 cells. The assay can be described thus: PRMT5 Cell Target Engagement (TE) Assay. Conditions: Homo sapiens, MCF7, 72 h; MCF-7 cells treated for 3 days; nuclear SDMA by high content imaging; top concentration 10000 nM. The class given is cell-based. An excerpt:
PRMT5 Cell Target Engagement (TE) Assay
The PRMT5 TE assay is a biomarker assay for identifying compounds that inhibit symmetric dimethylation of arginine (SDMA) of PRMT5 substrates. The following substrates have been reported for PRMT5: Histone H2A and H4 R3, Histone H3 R2, Histone 1-13 R8, spliceosome Sm proteins, ribosomal protein RPS10, p53, FEN1, nucleoplasmin, nucleolin, EGFR and EBNA. The assay will focus on detecting symnetrically dimethylated nuclear proteins using high content imaging technology. Detection of the expression of symmetrically dimethylated nuclear proteins is through a mixture of primary rabbit monoclonal antibodies to SDMA (CST 13222) which in turn recognized by an Alexafluor 488 dye-conjugated anti-rabbit IgG secondary antibody. The IN Cell Analyzer 2200 or Opera-Phenix measures nuclear Alexafluor 488 fluorescent dye intensity that is directly related to the level of expression of symmetrically dimethylated nuclear proteins at the single cell level. Nuclear AF488 dye intensities are compared to the mean value for DMSO treated cells (MIN) to report percent of inhibition for each compound-treated well.
In this assay, the cell potency (EC50) of each compound was determined from a ten point (1:3 serial dilution; top compound concentration of 10000 nM) titration curve using the following outlined procedure. Each well of a BD falcon collagen coated black/clear bottom 384-well plate was seeded with 4000 MCF-7 cells in 30 pal media and allowed to attach for 5 hours. Media is ATCC-formulated Eagle's Minimum Essential Medium, Catalog No. 30-2003. The following components were added to the base medium: 0.01 mg/mL human recombinant insulin; fetal bovine serum to a final concentration of 10%. Additional 30 pal of media containing 2× compounds were added to each well. Cells were treated for 3 days in 37° C. CO2 incubator. On day 3, cells were fixed with Cytofix, permeabilized with 0.4% Triton-X-100/Cytofix, and washed with D-PBS without Ca/Mg. Cells were blocked with Licor Odessey blocking reagent for 1 hour at room temperature, followed by incubation with anti-SDMA (1:1000) antibody at 4° C. overnight. 1° antibody was removed, followed by three washings with DPBS without Ca/Mg and 0.05% Tween20. Hoechst (5 μg/mL), Cell Mask deep stain (1:2000) and Alexa488-conjugated goat anti-rabbit IgG (2 μg/mL) was added for 1 hour at room temperature. A final washing step (three washes) was performed before sealing plate for imaging on in Cell Analyzer 2200 or Opera-Phenix. Images from analyzer were uploaded to Columbus for image analysis. IC50 values were determined by 4 parameters robust fit of percent fluorescence units vs. (Log 10) compound concentrations.

In turn, `Cc1cn([C@@H]2C[C@@H]3[C@H](Cc4cc(F)c5cc(Cl)c(N)nc5c4)CC[C@]3(O)[C@H]2O)c2ncnc(N)c12` [Example 36, (1S,2R,3aR,4S,6aR)-4-[(2-amino-3-chloro-5-fluoroquinolin-7-yl)methyl]-2-(4-amino-5-methyl-7H-pyrrolo[2,3-d]pyrimidin-7-yl)hexahydropentalene-1,6a(1H)-diol] yielded an EC50 of 1.4 nM.

`Cc1ncnc2c1ccn2[C@@H]1O[C@@H]2[C@H](Cc3ccc4cc(Br)c(N)nc4c3)CC[C@]2(O)[C@H]1O` [Example 8, (2R,3R,3aS,6S,6aR)-6-((2-amino-3-bromoquinolin-7-yl)methyl)-2-(4-methyl-7H-pyrrolo[2,3-d]pyrimidin-7-yl)hexahydro-2H-cyclopenta[b]furan-3,3a-diol] showed an EC50 of 0.5 nM.

On to `Nc1nc2cc(C[C@@H]3CC[C@@]4(O)[C@@H]3O[C@@H](n3ccc5c(N)ncnc53)[C@@H]4O)ccc2cc1F` [Example 124, (2R,3R,3aS,6S,6 aR)-6-((2-amino-3-fluoroquinolin-7-yl)methyl)-2-(4-amino-7H-pyrrolo[2,3-d]pyrimidin-7-yl)hexahydro-3aH-cyclopenta[b]furan-3,3a-diol], for which it took 2.3 nM to reach a half-maximal effect (EC50).

As to `Cc1nc(N)c2ccn([C@@H]3C[C@@H]4[C@H](Cc5ccc6cc(F)c(N)nc6c5)CC[C@]4(O)[C@H]3O)c2n1` [Example 32, (1S,2R,3aR,4S,6aR)-2-(4-amino-2-methyl-7H-pyrrolo[2,3-d]pyrimidin-7-yl)-4-((2-amino-3-fluoroquinolin-7-yl)methyl) hexahydropentalene-1,6a(1H)-diol 2,2,2-trifluoroacetate], the EC50 came to 0.8 nM.

`Nc1nc2cc(O[C@H]3CC[C@@]4(O)[C@@H]3O[C@@H](n3ccc5c(N)ncnc53)[C@@H]4O)ccc2cc1Br` [Example 6, (2R,3R,3aS,6S,6aR)-6-((2-amino-3-bromoquinolin-7-yl)oxy)-2-(4-amino-7H-pyrrolo[2,3-d]pyrimidin-7-yl)hexahydro-2H-cyclopenta[b]furan-3,3a-diol] returned an EC50 of 1.2 nM.

Compound `Cc1cc2ccc(C[C@@H]3CC[C@@]4(O)[C@@H]3O[C@@H](n3ccc5c(N)ncnc53)[C@@H]4O)cc2nc1N` [Example 125, (2R,3R,3aS,6S,6aR)-6-((2-amino-3-methylquinolin-7-yl)methyl)-2-(4-amino-7H-pyrrolo[2,3-d]pyrimidin-7-yl)hexahydro-3aH-cyclopenta[b]furan-3,3a-diol] returned an EC50 of 0.7 nM. Compared with the last compound, the EC50 is about 1.7-fold lower.

The compound `Cc1ncnc2c1c(F)cn2[C@@H]1O[C@@H]2[C@H](Cc3ccc4cc(Br)c(N)nc4c3)CC[C@]2(O)[C@H]1O` [Example 84, (2R,3R,3aS,6S,6aR)-6-((2-amino-3-bromoquinolin-7-yl)methyl)-2-(5-fluoro-4-methyl-7H-pyrrolo[2,3-d]pyrimidin-7-yl)hexahydro-3aH-cyclopenta[b]furan-3,3a-diol] displayed an EC50 of 7.5 nM.

`Cc1ncnc2c1ccn2[C@@H]1C[C@@H]2[C@H](Cc3ccc4cc(Cl)c(N)nc4c3)CC[C@]2(O)[C@H]1O` [Example 17, (1S,2R,3aR,4S,6aR)-4-((2-amino-3-chloroquinolin-7-yl)methyl)-2-(4-methyl-7H-pyrrolo[2,3-d]pyrimidin-7-yl)hexahydropentalene-1,6a(1H)-diol] showed an EC50 of 0.9 nM.

As to `Nc1nc2cc(C[C@@H]3CC[C@@]4(O)[C@@H]3C[C@@H](n3ccc5c(N)ncnc53)[C@@H]4O)ccc2cc1Br` [Example 41, (1S,2R,3aR,4S,6aR)-4-((2-amino-3-bromoquinolin-7-yl)methyl)-2-(4-amino-7H-pyrrolo[2,3-d]pyrimidin-7-yl)hexahydropentalene-1,6a (1H)-diol 2,2,2-trifluoroacetate], a half-maximal effect (EC50) was put at 2.9 nM.

As for `Cc1ncnc2c1ccn2[C@@H]1O[C@@H]2[C@@H](Oc3ccc4cc(F)c(N)nc4c3)CC[C@]2(O)[C@H]1O` [Example 86, (2R,3R,3aS,6S,6aR)-6-((2-amino-3-fluoroquinolin-7-yl)oxy)-2-(4-methyl-7H-pyrrolo[2,3-d]pyrimidin-7-yl)hexahydro-3aH-cyclopenta[b]furan-3,3a-diol], the EC50 came to 37.5 nM.

As to `Cc1ncnc2c1ccn2[C@@H]1O[C@@H]2[C@H](Cc3ccc4cc(Br)c(N)nc4c3)OC[C@]2(O)[C@H]1O` [Example 133], the concentration giving a half-maximal response (EC50) turned out to be 2.7 nM.

Take `Nc1nc2cc(C[C@@H]3CC[C@@]4(O)[C@@H]3C[C@@H](n3cc(F)c5c(N)ncnc53)[C@@H]4O)ccc2cc1Br` [Example 42, (1S,2R,3aR,4S,6aR)-4-((2-amino-3-bromoquinolin-7-yl)methyl)-2-(4-amino-5-fluoro-7H-pyrrolo[2,3-d]pyrimidin-7-yl)hexahydropentalene-1,6a(1H)-diol]: it took 0.3 nM to reach a half-maximal effect (EC50).

As to `Cc1nc(C)c2ccn([C@@H]3O[C@@H]4[C@H](Cc5ccc6cc(F)c(N)nc6c5)CC[C@]4(O)[C@H]3O)c2n1` [Example 90, (2R,3R,3aS,6S,6aR)-6-((2-amino-3-fluoroquinolin-7-yl)methyl)-2-(2,4-dimethyl-7H-pyrrolo[2,3-d]pyrimidin-7-yl)hexahydro-3aH-cyclopenta[b]furan-3,3a-diol], a half-maximal response (EC50) required 42.2 nM.

Compound `Nc1nc2cc(O[C@H]3CC[C@@]4(O)[C@@H]3O[C@@H](n3ccc5c(N)ncnc53)[C@@H]4O)ccc2cc1Cl` [Example 72, (2R,3R,3aS,6S,6aR)-6-((2-amino-3-chioroquinolin-7-yl)oxy)-2-(4-amino-7H-pyrrolo[2,3-d]pyrimidin-7-yl)hexahydro-3aH-cyclopenta[b]furan-3,3a-diol] gave an EC50 of 1.2 nM.

The compound `C[C@@]1(O)[C@@H](CCc2ccc3cc(Br)c(N)nc3c2)O[C@@H](n2ccc3c(N)ncnc32)[C@@H]1O` [Example 14, (2R,3S,4R,5R)-2-(2-(2-amino-3-bromoquinolin-7-yl)ethyl)-5-(4-amino-7H-pyrrolo[2,3-d]pyrimidin-7-yl)-3-methyltetrahydrofuran-3,4-diol] registered an EC50 of 17 nM.

The compound `Cc1ncnc2c1ccn2[C@@H]1O[C@@H]2[C@H](Cc3ccc4ccc(N)nc4c3)CC[C@]2(O)[C@H]1O` [Example 107, (2R,3R,3aS,6S,6aR)-6-((2-aminoquinolin-yl)methyl)-2-(4-methyl-7H-pyrrolo[2,3-d]pyrimidin-7-yl)hexahydro-2H-cyclopenta[b]furan-3,3a-diol] came in with an EC50 of 0.5 nM.

In turn, `Nc1nc2cc(O[C@H]3CC[C@@]4(O)[C@@H]3O[C@@H](n3ccc5c(N)ncnc53)[C@@H]4O)ccc2cc1C(F)F` [Example 128, (2R,3R,3aS,6S,6aR)-6-((2-amino-3-(difluoromethyl)quinolin-7-yl)oxy)-2-(4-amino-7H-pyrrolo[2,3-d]pyrimidin-7-yl)hexahydro-3aH-cyclopenta[b]furan-3,3a-diol] registered an EC50 of 15.5 nM.

Turning to `Nc1nc2cc(C[C@@H]3CC[C@@]4(O)[C@@H]3O[C@@H](n3ccc5c(N)nc(Cl)nc53)[C@@H]4O)ccc2cc1F` [Example 48, (2R,3R,3aS,6S,6aR)-2-(4-amino-2-chloro-7H-pyrrolo[2,3-d]pyrimidin-7-yl)-6-[(2-amino-3-fluoroquinolin-7-yl)methyl]hexahydro-3aH-cyclopenta[b]furan-3,3a-diol], the EC50 is 1.7 nM.

Turning to `C[C@@]1(O)[C@@H](COc2ccc3cc(Br)c(N)nc3c2)C[C@@H](n2ccc3c(Cl)ncnc32)[C@@H]1O` [Example 1], the EC50 was determined as 18 nM.

On to `Cc1nc(N)nc2c1ccn2[C@@H]1O[C@@H]2[C@H](Cc3ccc4cc(Br)c(N)nc4c3)CC[C@]2(O)[C@H]1O` [Example 127, (2R,3R,3aS,6S,6aR)-6-((2-amino-3-bromoquinolin-7-yl)methyl)-2-(2-amino-4-methyl-7-pyrrolo[2,3-d]pyrimidin-7-yl)hexahydro-3aH-cyclopenta[b]furan-3,3a-diol], for which the EC50 came out at 0.8 nM.

With `Cc1nc(N)c2ccn([C@@H]3C[C@@H]4[C@H](Cc5ccc6cc(Cl)c(N)nc6c5)CC[C@]4(O)[C@H]3O)c2n1` [Example 31, (1S,2R,3aR,4S,6aR)-2-(4-amino-2-methyl-7H-pyrrolo[2,3-d]pyrimidin-7-yl)-4-((2-amino-3-chloroquinolin-7-yl)methyl) hexahydropentalene-1,6a(1H)-diol 2,2,2-trifluoroacetate], the EC50 is 0.8 nM.

`Cc1nc(C)c2ccn([C@@H]3O[C@@H]4[C@@H](Oc5ccc6cc(Br)c(N)nc6c5)CC[C@]4(O)[C@H]3O)c2n1` [Example 80, (2R,3R,3aS,6S,6aR)-6-((2-amino-3-bromoquinolin-7-yl)oxy)-2-(2,4-dimethyl-7H-pyrrolo[2,3-d]pyrimidin-7-yl)hexahydro-3aH-cyclopenta[b]furan-3,3a-diol 2,2,2-trifluoroacetate]: the response was half-maximal at 97 nM (EC50).
